DC50 and Dmax data for eleven compounds are collected here from patent US12599672B2, “KRAS proteolysis targeting chimeras” (PAQ Therapeutics Inc., priority 2023, dated 2026).

Format in all cases: cell-based
One experiment addresses T1, KRAS G12V (Homo sapiens, UniProt P01116, G12V).
T1 construct: SW620-KRAS (G12V)-HiBit-KI cell (Pharmaron); host or cells: SW620-KRAS (G12V)-HiBit-KI cells (HiBiT knock-in at the endogenous KRAS locus)
Nature of the experiment: KRAS G12V HiBit assay. The note with it: SW620-KRAS (G12V)-HiBit-KI cells, compound treatment for 24 hours, class symbols. The essentials: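 Luminescence from lytic Nano-Glo HiBiT detection with LgBiT read KRAS G12V levels after 24 h compound exposure. Dilutions were 10-point, 3-fold, from a 0.3 mM DMSO stock. Degradation activity was normalised to cells given 0.1% DMSO alone.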

The target of another experiment is T2, KRAS G12D (Homo sapiens, UniProt P01116, G12D).
T2 construct: AsPc-1-KRAS (G12D)-HiBit-KI cell (Pharmaron); host or cells: AsPc-1-KRAS (G12D)-HiBit-KI cells (HiBiT knock-in at the endogenous KRAS locus)
T2 sequence (P01116 1-188 isoform P01116-2 G12D): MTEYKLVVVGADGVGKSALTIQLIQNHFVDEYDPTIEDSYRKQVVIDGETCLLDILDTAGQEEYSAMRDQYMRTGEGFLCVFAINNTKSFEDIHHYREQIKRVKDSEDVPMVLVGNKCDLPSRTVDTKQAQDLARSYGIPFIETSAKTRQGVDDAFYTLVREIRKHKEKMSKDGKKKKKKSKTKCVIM
Nature of the experiment: KRAS G12D HiBit assay. The note with it: AsPc-1-KRAS (G12D)-HiBit-KI cell, compound treatment for 24 hours; for DC50: absolute DC50. The essentials:
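HiBiT luminescence, detected by adding lytic buffer, substrate and LgBiT protein, served as the KRAS G12D read-out. Compounds, serially diluted 3-fold over 10 points from 0.3 mM DMSO stock, were on cells for 24 h; percent inhibition normalized to cells given 0.1% DMSO only.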

In a further experiment the target is T3, KRAS (Homo sapiens, UniProt P01116).
T3 construct: endogenous in cells; host or cells: KE39 (KRAS amplified) cells
T3 sequence (P01116 1-188 isoform P01116-2): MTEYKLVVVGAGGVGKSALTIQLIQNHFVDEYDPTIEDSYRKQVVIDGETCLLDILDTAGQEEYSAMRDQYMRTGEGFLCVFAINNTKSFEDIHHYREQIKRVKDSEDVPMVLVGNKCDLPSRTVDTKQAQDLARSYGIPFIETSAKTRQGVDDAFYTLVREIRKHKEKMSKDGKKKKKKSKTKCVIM
Nature of the experiment: KRASamp MSD assay. The note with it: KE39 (KRAS amplified) cells, treated with test compounds for 24 hr, MSD readout of KRAS degradation. The procedure, abridged:
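Degradation DC50 derived by curve fitting, with KRAS levels quantified by MSD electrochemiluminescence (capture/detection antibodies, recombinant WT KRAS standard). Lysates prepared from KE39 cells (KRAS amplified) exposed to test compounds for 24 hr.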

[1] abbreviates: numeric bounds given in place of class symbols.

Structures are written as SMILES.

T1 sequence (P01116 1-188 isoform P01116-2 G12V): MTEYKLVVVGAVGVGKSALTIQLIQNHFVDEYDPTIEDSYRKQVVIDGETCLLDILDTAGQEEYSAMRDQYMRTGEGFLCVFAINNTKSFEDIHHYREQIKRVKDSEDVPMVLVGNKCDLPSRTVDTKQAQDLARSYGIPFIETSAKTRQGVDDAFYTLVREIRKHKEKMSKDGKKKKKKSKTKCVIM

With `C#Cc1c(F)ccc2cc(O)cc(-c3ncc4c(N5CCC[C@@](C)(O)C5)nc(OC[C@]56CCCN5[C@@H](COC(=O)N5CCC(CN7CCC(c8ccc9c(c8)n(C)c(=O)n9C8CCC(=O)NC8=O)CC7)CC5)CC6)nc4c3F)c12` (stereo partly drawn) [Compound 126, ((3R,7aR)-7a-(((7-(8-Ethynyl-7-fluoro-3-hydroxynaphthalen-1-yl)-8-fluoro-4-((R)-3-hydroxy-3-methylpiperidin-1-yl)pyrido[4,3-d]pyrimidin-2-yl)oxy)methyl)hexahydro-1H-pyrrolizin-3-yl)methyl 4-((4-(1-(2,6-dioxopiperidin-3-yl)-3-methyl-2-oxo-2,3-dihydro-1H-benzo[d]imidazol-5-yl)piperidin-1-yl)methyl) piperidine-1-carboxylate], the DC50 at KRAS G12V was under 10 nM; on KRAS G12D (setting [1]), over 38.3 nM; on KRAS it was under 1 nM.
Regarding `CCc1c(F)ccc2cc(O)cc(-c3ncc4c(N5CC6(CCC6)C5)nc(OC[C@@]56CCCN5[C@H](COC(=O)N5CCC7(CC5)CC(N5CCC(c8ccc9c(c8)n(C)c(=O)n9C8CCC(=O)NC8=O)CC5)C7)CC6)nc4c3F)c12` (stereo partly drawn) [Compound 347, ((3S,7aS)-7a-(((7-(8-ethyl-7-fluoro-3-hydroxynaphthalen-1-yl)-8-fluoro-4-(2-azaspiro[3.3]heptan-2-yl)pyrido[4,3-d]pyrimidin-2-yl)oxy)methyl)hexahydro-1H-pyrrolizin-3-yl)methyl 2-(4-(1-(2,6-dioxopiperidin-3-yl)-3-methyl-2-oxo-2,3-dihydro-1H-benzo[d]imidazol-5-yl)piperidin-1-yl)-7-azaspiro[3.5]nonane-7-carboxylate], the DC50 was over 100 nM on KRAS G12V, over 100 nM on KRAS G12D (setting [1]) and at least 10 nM at KRAS.
Turning to `CCc1c(F)ccc2cc(O)cc(-c3ncc4c(N5CCC[C@@](C)(O)C5)nc(OCC5(CN6CCN(CC7CCN(c8ccc9c(c8)n(C)c(=O)n9C8CCC(=O)NC8=O)CC7)CC6)CC5)nc4c3F)c12` (stereo partly shown) [Compound 34], the DC50 is under 10 nM at KRAS G12V, under 100 nM at KRAS G12D (class symbols) and under 1 nM at KRAS.
On to `CCc1c(F)ccc2cc(O)cc(-c3ncc4c(N5CCC[C@@](C)(O)C5)nc(OC[C@]56CCCN5[C@H](COC(=O)N5CCC(COc7ccc8c(c7)n(C)c(=O)n8C7CCC(=O)NC7=O)CC5)CC6)nc4c3F)c12` (stereo partly drawn) [Compound 301, ((3S,7aR)-7a-(((7-(8-ethyl-7-fluoro-3-hydroxynaphthalen-1-yl)-8-fluoro-4-((R)-3-hydroxy-3-methylpiperidin-1-yl)pyrido[4,3-d]pyrimidin-2-yl)oxy)methyl)hexahydro-1H-pyrrolizin-3-yl)methyl 4-(((1-(2,6-dioxopiperidin-3-yl)-3-methyl-2-oxo-2,3-dihydro-1H-benzo[d]imidazol-5-yl)oxy)methyl)piperidine-1-carboxylate], for which the DC50 at KRAS G12V is under 10 nM; at KRAS G12D (class symbols), under 100 nM; at KRAS, under 1 nM.
For `CCc1c(F)ccc2cc(O)cc(-c3ncc4c(N5CCC[C@@](C)(O)C5)nc(OC[C@@]56CCCN5[C@H](COC(=O)N5CC7(CC(CN8CCC(c9ccc%10c(c9)n(C)c(=O)n%10C9CCC(=O)NC9=O)CC8)C7)C5)CC6)nc4c3F)c12` (stereo partly drawn) [Compound 396, ((3S,7aS)-7a-(((7-(8-ethyl-7-fluoro-3-hydroxynaphthalen-1-yl)-8-fluoro-4-((R)-3-hydroxy-3-methylpiperidin-1-yl)pyrido[4,3-d]pyrimidin-2-yl)oxy)methyl)hexahydro-1H-pyrrolizin-3-yl)methyl 6-((4-(1-(2,6-dioxopiperidin-3-yl)-3-methyl-2-oxo-2,3-dihydro-1H-benzo[d]imidazol-5-yl)piperidin-1-yl)methyl)-2-azaspiro[3.3]heptane-2-carboxylate], in that order: under 10 nM, under 100 nM and under 1 nM.
For `CCc1c(F)ccc2cc(O)cc(-c3ncc4c(N5CCC[C@@](C)(O)C5)nc(OC[C@@]56CCCN5[C@H](COC(=O)N5CC7(CCN(CC#Cc8ccc9c(c8)n(C)c(=O)n9C8CCC(=O)NC8=O)CC7)C5)CC6)nc4c3F)c12` (stereo partly drawn) [Compound 453, ((3S,7aS)-7a-(((7-(8-Ethyl-7-fluoro-3-hydroxynaphthalen-1-yl)-8-fluoro-4-((R)-3-hydroxy-3-methylpiperidin-1-yl)pyrido[4,3-d]pyrimidin-2-yl)oxy)methyl)hexahydro-1H-pyrrolizin-3-yl)methyl 7-(3-(1-(2,6-dioxopiperidin-3-yl)-3-methyl-2-oxo-2,3-dihydro-1H-benzo[d]imidazol-5-yl)prop-2-yn-1-yl)-2,7-diazaspiro[3.5]nonane-2-carboxylate], in that order: under 10 nM, under 100 nM and under 1 nM.
Consider `CCc1c(F)ccc2cc(O)cc(-c3ncc4c(N5CCC[C@@](C)(O)C5)nc(OC[C@@]56CCCN5[C@H](COC(=O)N5CCC(CN7CCN(c8ccc9c(c8)n(C)c(=O)n9C8CCC(=O)NC8=O)CC7)CC5)CC6)nc4c3F)c12` (stereo partly drawn) [Compound 95, [(3S,8S)-8-[[7-(8-ethyl-7-fluoro-3-hydroxy-1-naphthyl)-8-fluoro-4-[(3R)-3-hydroxy-3-methyl-1-piperidyl]pyrido[4,3-d]pyrimidin-2-yl]oxymethyl]-1,2,3,5,6,7-hexahydropyrrolizin-3-yl]methyl4-[[4-[1-(2,6-dioxo-3-piperidyl)-3-methyl-2-oxo-benzimidazol-5-yl]piperazin-1-yl]methyl]piperidine-1-carboxylate], for which the DC50 on KRAS G12V was under 10 nM; at KRAS G12D (class symbols), under 100 nM; on KRAS, under 1 nM. At KRAS G12D (class symbols), this compound came in with a Dmax of over 50%.
In the case of `CCc1c(F)ccc2cc(O)cc(-c3ncc4c(N5CCC[C@@](C)(O)C5)nc(OC[C@@]56CCCN5[C@H](CNC(=O)c5ccc(CN7CCC(c8ccc9c(c8)n(C)c(=O)n9C8CCC(=O)NC8=O)CC7)cc5)CC6)nc4c3F)c12` (stereo partly drawn) [Compound 484, 4-((4-(1-(2,6-dioxopiperidin-3-yl)-3-methyl-2-oxo-2,3-dihydro-1H-benzo[d]imidazol-5-yl)piperidin-1-yl)methyl)-N-(((3S,7aS)-7a-(((7-(8-ethyl-7-fluoro-3-hydroxynaphthalen-1-yl)-8-fluoro-4-((R)-3-hydroxy-3-methylpiperidin-1-yl)pyrido[4,3-d]pyrimidin-2-yl)oxy)methyl)hexahydro-1H-pyrrolizin-3-yl)methyl)benzamide], the figures for the DC50 on KRAS G12V, at KRAS G12D (class symbols) and on KRAS were 10 to 100 nM, under 100 nM and at least 10 nM, respectively.
On to `Cn1c(=O)n(C2CCC(=O)NC2=O)c2cc(F)c(C3CCN(CC4CCN(C(=O)OC[C@@H]5CC[C@]6(COc7nc(N8CCC[C@@](C)(O)C8)c8cnc(-c9cc(O)cc%10ccc(F)cc9%10)c(F)c8n7)CCCN56)CC4)CC3)cc21` (stereo partly drawn) [Compound 447, ((3S,7aS)-7a-(((8-fluoro-7-(7-fluoro-3-hydroxynaphthalen-1-yl)-4-((R)-3-hydroxy-3-methylpiperidin-1-yl)pyrido[4,3-d]pyrimidin-2-yl)oxy)methyl)hexahydro-1H-pyrrolizin-3-yl)methyl 4-((4-(1-(2,6-dioxopiperidin-3-yl)-6-fluoro-3-methyl-2-oxo-2,3-dihydro-1H-benzo[d]imidazol-5-yl)piperidin-1-yl)methyl)piperidine-1-carboxylate], for which the DC50 is under 10 nM on KRAS G12V, under 100 nM at KRAS G12D (class symbols) and under 1 nM on KRAS.
With `CCc1c(F)ccc2cc(O)cc(-c3ncc4c(N5CCC[C@@](C)(O)C5)nc(OC[C@]56CCCN5[C@H](COC(=O)NC5CCCN(c7cccc8c7n(C)c(=O)n8C7CCC(=O)NC7=O)C5)CC6)nc4c3F)c12` (stereo partly drawn) [Compound 312, ((3S,7aR)-7a-(((7-(8-ethyl-7-fluoro-3-hydroxynaphthalen-1-yl)-8-fluoro-4-((R)-3-hydroxy-3-methylpiperidin-1-yl)pyrido[4,3-d]pyrimidin-2-yl)oxy)methyl)hexahydro-1H-pyrrolizin-3-yl)methyl (1-(1-(2,6-dioxopiperidin-3-yl)-3-methyl-2-oxo-2,3-dihydro-1H-benzo[d]imidazol-4-yl)piperidin-3-yl)carbamate], the DC50 was 10 to 100 nM at KRAS G12V, over 100 nM on KRAS G12D (setting [1]) and at least 10 nM at KRAS.
For the compound `CCc1cccc2cc(O)cc(-c3ncc4c(N5CCC[C@@](C)(O)C5)nc(OC[C@@]56CCCN5[C@H](COC(=O)N5CCC7(CC5)CC(N5CCC(c8ccc9c(c8)n(C)c(=O)n9C8CCC(=O)NC8=O)CC5)C7)CC6)nc4c3F)c12` (stereo partly drawn) [Compound 468, ((3S,7aS)-7a-(((7-(8-ethyl-3-hydroxynaphthalen-1-yl)-8-fluoro-4-((R)-3-hydroxy-3-methylpiperidin-1-yl)pyrido[4,3-d]pyrimidin-2-yl)oxy)methyl)hexahydro-1H-pyrrolizin-3-yl)methyl 2-(4-(1-(2,6-dioxopiperidin-3-yl)-3-methyl-2-oxo-2,3-dihydro-1H-benzo[d]imidazol-5-yl)piperidin-1-yl)-7-azaspiro[3.5]nonane-7-carboxylate], the values for the DC50 on KRAS G12V, on KRAS G12D (class symbols) and at KRAS were under 10 nM, under 100 nM and under 1 nM, respectively.
